Data set [1] is described as follows: NIR fluorescence emission spectra of the probes. The format is physicochemical. Conditions: excitation of 777 nm. The method, then:
Triethylamine (65.3 μL, 0.467 mmol) and 3-mercaptopropionic acid (40.7 μL, 0.467 mmol) were added to a solution of IR-783 (250 mg, 0.33 mmol) in 6 mL of anhydrous dimethylformamide (“DMF”). The resulting green solution was stirred in the dark at room temperature. The conversion reaction of IR783 to CyTE777 was complete after 21 h, as monitored by high-performance liquid chromatography (“HPLC”). A green solid was isolated through precipitation with ether at 4° C. and was washed with 3 mL cold ether. The precipitate was dissolved in water and dried under vacuum.
The augmented fluorescence intensity indicated completed conjugation.
Pamidronate (“PAM”) was attached to the carboxylate surface of nanoAu to form nanoAu-Pam directly or using a zero-length crosslinking agent, i.e., 1-ethyl-3-[3-dimethyl-aminopropyl] carbodiimide hydrochloride (“EDC”). Briefly, equal volumes of nanoAu (40 mM), pamidronate (3 mM), and EDC (80 mM) were mixed at room temperature for 2 h. To concentrate the nanoAu-Pam, the reaction was loaded on a 30 kDa molecular sieve (Amicon) and centrifuged at 3000 rpm for 10 min. The solution was centrifuged twice and washed with phosphate-buffered saline (“PBS”) to remove any unbound reactants. […] The fluorescence intensity of excitation spectra was recorded using an Edinburgh FL 900 CDT Time-Resolved Fluorometer (Edinburgh Analytical Instruments, Livingston, UK).

For data set [2] the following is noted: statement on the purchased dye; cited from earlier work.
Data set [3] relates to undifferentiated MSCs. Put plainly: Calcein staining of undifferentiated MSCs. In kind it is cell-based. The method, then: Cells were also stained with calcein using a standard protocol to confirm calcium deposition in the culture. A 10x calcein/PBS staining solution was added to each well without medium change. The cells were incubated at 37° C., 5% CO2 overnight, washed twice with PBS, fixed with formaldehyde, and observed by fluorescence microscopy.

Data set [4] concerns osteoblastic-differentiated MSC culture. Put plainly: Calcein staining for calcium deposition in osteogenically induced MSC culture. The format is cell-based. Conditions: MSC culture after 21 days of osteogenic induction. The method, then:
For osteogenic induction, MSCs were cultured in 24-well plates in DMEM/LG medium supplemented with 10% FBS, 100 units/mL penicillin, 100 μg/mL streptomycin, 50 μg/ml L-ascorbate-2-phosphate, 10^−7 M dexamethasone and 10 mM β-glycero-phosphate at 37° C., 5% CO2. Cells were also stained with calcein using a standard protocol to confirm calcium deposition in the culture. A 10x calcein/PBS staining solution was added to each well without medium change. The cells were incubated at 37° C., 5% CO2 overnight, washed twice with PBS, fixed with formaldehyde, and observed by fluorescence microscopy.

The test system of data set [5] is osteoblastic-induced MSCs (α5β1). Put plainly: Binding specificity of α5β1L-CyTE777 in osteoblastic-induced MSCs, confocal microscopy. The format is cell-based. Conditions: osteoblastic-induced MSC. As to the method:
(§1) To determine the binding specificity of α5β1L-CyTE777, undifferentiated MSCs or osteoblastic-induced MSCs were cultured in 24-well plates in DMEM/LG supplemented with 10% FBS. α5β1L-CyTE777 was applied to the cultures to detect binding to α5β1 . Cultures incubated with α5β1L-CyTE777 were washed with PBS twice and analyzed by confocal microscopy after staining nuclei with diamidinophenylindole (“DAPI”).

Data set [6] relates to undifferentiated MSCs. Put plainly: Binding specificity of α5β1L-CyTE777 in undifferentiated MSCs, confocal microscopy. Conditions: undifferentiated MSC. The format is cell-based. The method, then: as §1

The text below walks through data of patent US20220184235A1, “NEAR-INFRARED FLUORESCENT PROBES FOR MOLECULAR IMAGING OF BONE REPAIR” (Taipeibio Co., Ltd., priority 2020, published 2022).

Bridges are numbered along the chain shown (N, C = ends). Where no end group is shown, it is not given here.

In turn, `CC1(C)C(=CC=C2CCCC(C=CC3=[N+](CCCCS(=O)(=O)[O-])c4ccccc4C3(C)C)=C2SCCC(=O)O)N(CCCCS(=O)(=O)[O-])c2ccccc21.[Na+]` [CyTE777] yielded an NIR emission peak in data set [1] of 820 nm.
Take `CC1(C)C(=CC=C2CCCC(C=CC3=[N+](CCCCS(=O)(=O)[O-])c4ccccc4C3(C)C)=C2Cl)N(CCCCS(=O)(=O)[O-])c2ccccc21.[Na+]` [IR783]: the cell toxicity result in data set [2] is given as “minimal cell toxicity”.
For the molecule `O=C(O)CN(CC(=O)O)Cc1cc2c(cc1O)Oc1cc(O)c(CN(CC(=O)O)CC(=O)O)cc1C21OC(=O)c2ccccc21` [calcein], the “calcein staining (calcium deposition)” value in the data set on undifferentiated MSCs [3] is listed as “No calcein staining”; in data set [4], “positive staining”.
In data set [1], “α5β1L-CyTE777: CyTE777 conjugated to the N-terminal glycine NH2 of disulfide-cyclised peptide GGCRRETAWAC (SEQ ID NO: 1) (CyTE777-GGCRRETAWAC; disulfide 3-11 (inferred))” displayed an NIR emission peak of 820 nm. The “fluorescent signal of cells incubated with probe” value is recorded as “strong NIR fluorescence at 820 nm” in data set [5] and “did not show any fluorescent signal” in the data set with undifferentiated MSCs [6].
